# Results: ChEMBL document CHEMBL1201862, “PubChem BioAssay data set” (2004)
# Active and inactive are the calls of the source.
# What was measured:
# [1] = target: Voltage-gated inwardly rectifying potassium channel KCNH2 (Homo sapiens, UniProt Q12809); conditions: Potency;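 further: confirmatory quantitative high-throughput screen measuring inhibition of hERG channel activity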
# [2] = target: Cytochrome P450 3A4 (Homo sapiens, UniProt P08684);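 further: CYP3A4 tested as one member of a cytochrome P450 panel screen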
# [3] = cytotoxicity in HMLE control line with eGFP shRNA, dose response, counter-screen for HMLE_sh_ECad selective toxicity project, cell-based, HMLE_sh_eGFP, luminescence (AID 463074); assay type: functional, Homo sapiens;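 further: HMLE human mammary epithelial cells expressing control shRNA against eGFP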
# [4] = Luminescence Cell-Based Dose Retest to Confirm Inhibitors of Cancer Stem Cells. [Related pubchem assays (depositor defined):AID2717, AID2721]; assay type: functional; conditions: Homo sapiens
# [5] = target: Dual specificity tyrosine-phosphorylation-regulated kinase 1A (Rattus norvegicus, UniProt Q63470); assay type: biochemical, Homo sapiens
# [6] = target: Dual specificity protein kinase CLK1 (Homo sapiens, UniProt P49759); assay: CLK1 kinase inhibitors, off-target check, dose response, selectivity assay for Dyrk1A inhibitor project, biochemical, cherry-picked samples (AID 588811)
# [7] = target: Luciferin 4-monooxygenase (Photinus pyralis, UniProt P08659); assay: firefly luciferase enzyme inhibitors, dose response, biochemical, luminescence (AID 1891)
# [8] = target: Nonstructural protein 1 (Influenza A virus, UniProt Q194T2); assay type: functional, Influenza A virus (A/California/07/2009(H1N1))
# [9] = tested on: MDCK; assay: antiviral activity against H1N1 influenza, dose response, cell-based, strain KY180 (AID 540254); assay type: functional; conditions: Canis lupus familiaris
# [10] = tested on: MDCK; assay: MDCK cell cytotoxicity, dose response, cytotoxicity control (AID 540296); assay type: functional; conditions: Canis lupus familiaris
# [11] = Luminescence Cell-Based Dose Confirmation HTS to Identify Inhibitors of Platelet Dense Granule Release. [Related pubchem assays: 1663 (Primary HTS), 1678 (Summary of Project)]; assay type: functional
# [12] = Shn3 3'UTR reporter inhibitors, dose response, cell-based, Clone20 osteoblasts, firefly luciferase, cherry-picked (AID 624132); assay type: functional;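 further: firefly luciferase luminescence from reporter carrying the Shn3 3'UTR in osteoblasts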
# [13] = HEK293T cytotoxicity, dose response, cytotoxicity control for miR-122 modulator project, cell-based, inhibitor set, cherry-pick, set 2 (AID 720697); assay type: functional
# [14] = insulin promoter down-regulators in MIN6 cells, imaging, high-content screening, mouse beta cells (AID 1628); assay type: functional
# [15] = tested on: BJ; assay: cytotoxicity toward BJ-TERT fibroblasts, dose response, cell-based, RAS-independent, luminescence (AID 1933); assay type: functional; conditions: Homo sapiens
# [16] = HEK293T cytotoxicity, dose response, cytotoxicity control for miR-122 modulator project, cell-based, activator set, cherry-pick (AID 720690); assay type: functional;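 further: HEK293T human cells scored for general mammalian cytotoxicity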
# [17] = cytotoxicity toward DRD oncogenic fibroblasts, dose response, cell-based, non-viral oncogenic, luminescence (AID 1934); assay type: functional; conditions: Homo sapiens
# [18] = control 3'UTR Renilla luciferase suppression, dose response, counter-screen for Shn3 inhibitor project, cell-based, Clone20-Shn3RL, cherry-picked (AID 624133); assay type: functional
# [19] = cells; assay type: functional, cell-based
# [20] = inhibitors of intracellular T. cruzi replication, confirmation, NIH3T3 host cells, beta-gal luminescence (AID 2044); assay type: functional, cell-based;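 further: intracellular parasites grown in NIH/3T3 mouse fibroblasts as host cells; luminescent beta-galactosidase reporter signal from transgenic T. cruzi replicating inside host cells; inhibitors lower the luminescence signal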
# [21] = HepG2 cell cytotoxicity, dose response, cytotoxicity control for Shn3 inhibitor project, CellTiter-Glo, cherry-picked (AID 624134); assay type: functional, cell-based
# [22] = tested on: BJ; assay: cytotoxicity toward BJ-TERT-LT-ST fibroblasts, dose response, cell-based, RAS-independent, luminescence (AID 1935); assay type: functional; conditions: Homo sapiens;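 further: BJ fibroblasts immortalized with TERT plus LT and ST oncogenes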
# [23] = cells; assay type: functional, cell-based; remark: listed apart in the source
# [24] = cytotoxicity in MIN6 insulinoma cells, dose response, cytotoxicity control, cell-based, mouse insulinoma (AID 2122); assay type: functional;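 further: confirmatory high-throughput counterscreen run to flag cytotoxic compounds; mouse MIN-6 beta cells carrying an insulin promoter eGFP reporter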
# [25] = tested on: BJ; assay: cells; assay type: functional, cell-based; conditions: Homo sapiens
# [26] = cytotoxicity toward NIH3T3 fibroblasts, dose response, counter-screen, cell-based, ATP luminescence, mouse fibroblasts (AID 2010); assay type: functional;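 further: cells exposed to compound for about 90 hours before reading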
# [27] = tested on: INS1; assay: beta cell apoptosis inhibitors, cytokine rescue, dose response, luminescence, retest (AID 449756); assay type: functional, cell-based; conditions: Rattus norvegicus;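 further: cell death triggered by IL-1 beta plus TNF-alpha plus IFN-gamma mixture; protective hits raise ATP signal compared with cytokine alone wells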
# Cytochrome P450 3A4, sequence (P08684 whole entry): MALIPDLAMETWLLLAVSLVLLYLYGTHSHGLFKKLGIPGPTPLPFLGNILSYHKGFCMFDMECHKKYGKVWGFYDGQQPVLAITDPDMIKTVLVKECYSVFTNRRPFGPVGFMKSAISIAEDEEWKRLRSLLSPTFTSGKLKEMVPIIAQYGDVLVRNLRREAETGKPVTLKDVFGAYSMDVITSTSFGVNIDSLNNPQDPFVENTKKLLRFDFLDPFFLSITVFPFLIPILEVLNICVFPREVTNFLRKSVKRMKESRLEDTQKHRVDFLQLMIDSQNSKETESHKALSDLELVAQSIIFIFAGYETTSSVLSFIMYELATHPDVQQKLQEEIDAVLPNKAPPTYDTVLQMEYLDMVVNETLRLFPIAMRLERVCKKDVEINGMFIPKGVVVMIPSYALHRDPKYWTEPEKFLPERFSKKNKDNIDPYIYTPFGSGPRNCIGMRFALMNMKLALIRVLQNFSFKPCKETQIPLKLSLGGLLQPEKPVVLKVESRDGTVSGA
# Voltage-gated inwardly rectifying potassium channel KCNH2, sequence (Q12809 whole entry): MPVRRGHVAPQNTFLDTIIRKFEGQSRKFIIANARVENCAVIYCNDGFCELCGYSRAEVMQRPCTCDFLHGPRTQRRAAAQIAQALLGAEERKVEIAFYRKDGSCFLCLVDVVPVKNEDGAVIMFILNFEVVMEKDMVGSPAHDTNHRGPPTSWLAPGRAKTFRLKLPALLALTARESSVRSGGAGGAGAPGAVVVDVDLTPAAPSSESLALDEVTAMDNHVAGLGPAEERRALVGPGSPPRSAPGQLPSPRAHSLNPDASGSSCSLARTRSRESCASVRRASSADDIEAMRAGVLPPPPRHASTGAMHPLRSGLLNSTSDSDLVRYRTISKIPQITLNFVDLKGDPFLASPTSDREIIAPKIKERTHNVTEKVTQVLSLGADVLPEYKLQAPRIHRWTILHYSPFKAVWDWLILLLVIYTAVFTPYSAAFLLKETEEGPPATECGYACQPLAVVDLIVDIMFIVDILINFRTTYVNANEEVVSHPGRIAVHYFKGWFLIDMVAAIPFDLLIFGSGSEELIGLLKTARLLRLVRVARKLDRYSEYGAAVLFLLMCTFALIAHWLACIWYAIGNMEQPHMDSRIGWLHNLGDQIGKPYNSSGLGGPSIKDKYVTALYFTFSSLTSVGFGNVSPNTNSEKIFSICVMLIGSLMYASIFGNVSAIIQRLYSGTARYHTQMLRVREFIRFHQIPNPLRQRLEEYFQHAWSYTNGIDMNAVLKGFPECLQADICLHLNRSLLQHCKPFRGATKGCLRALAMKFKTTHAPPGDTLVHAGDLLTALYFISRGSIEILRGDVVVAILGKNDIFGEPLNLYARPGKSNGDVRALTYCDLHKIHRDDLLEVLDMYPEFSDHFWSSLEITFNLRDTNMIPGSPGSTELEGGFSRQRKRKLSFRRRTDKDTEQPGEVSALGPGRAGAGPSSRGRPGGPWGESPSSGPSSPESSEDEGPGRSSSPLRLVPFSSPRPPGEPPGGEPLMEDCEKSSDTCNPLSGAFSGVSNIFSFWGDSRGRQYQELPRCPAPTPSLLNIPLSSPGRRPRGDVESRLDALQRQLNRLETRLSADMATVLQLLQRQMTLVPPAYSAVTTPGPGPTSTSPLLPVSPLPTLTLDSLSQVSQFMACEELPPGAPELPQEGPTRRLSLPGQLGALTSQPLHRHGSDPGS
# Nonstructural protein 1, sequence (Q194T2 whole entry): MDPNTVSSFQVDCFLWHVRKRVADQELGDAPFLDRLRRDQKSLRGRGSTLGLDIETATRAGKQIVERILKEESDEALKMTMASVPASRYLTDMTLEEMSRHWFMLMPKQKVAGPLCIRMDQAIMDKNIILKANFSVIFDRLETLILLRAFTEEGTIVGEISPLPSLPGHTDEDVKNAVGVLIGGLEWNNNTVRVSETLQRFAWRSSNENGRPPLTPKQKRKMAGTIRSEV
# Dual specificity protein kinase CLK1, sequence (P49759 whole entry): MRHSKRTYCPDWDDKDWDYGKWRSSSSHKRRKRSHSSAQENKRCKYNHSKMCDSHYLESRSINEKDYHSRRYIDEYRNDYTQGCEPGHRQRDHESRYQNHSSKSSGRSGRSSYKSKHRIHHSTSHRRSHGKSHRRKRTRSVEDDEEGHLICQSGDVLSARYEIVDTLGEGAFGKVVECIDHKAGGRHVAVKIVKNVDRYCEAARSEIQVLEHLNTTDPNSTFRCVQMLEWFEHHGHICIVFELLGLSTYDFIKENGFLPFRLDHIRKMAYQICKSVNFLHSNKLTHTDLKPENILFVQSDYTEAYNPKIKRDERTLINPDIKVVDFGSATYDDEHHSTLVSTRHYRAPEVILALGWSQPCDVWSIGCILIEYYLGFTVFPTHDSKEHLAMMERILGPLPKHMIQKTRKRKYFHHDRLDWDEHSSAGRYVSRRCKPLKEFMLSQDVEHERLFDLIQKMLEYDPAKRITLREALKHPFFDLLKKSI
# Luciferin 4-monooxygenase, sequence (P08659 whole entry): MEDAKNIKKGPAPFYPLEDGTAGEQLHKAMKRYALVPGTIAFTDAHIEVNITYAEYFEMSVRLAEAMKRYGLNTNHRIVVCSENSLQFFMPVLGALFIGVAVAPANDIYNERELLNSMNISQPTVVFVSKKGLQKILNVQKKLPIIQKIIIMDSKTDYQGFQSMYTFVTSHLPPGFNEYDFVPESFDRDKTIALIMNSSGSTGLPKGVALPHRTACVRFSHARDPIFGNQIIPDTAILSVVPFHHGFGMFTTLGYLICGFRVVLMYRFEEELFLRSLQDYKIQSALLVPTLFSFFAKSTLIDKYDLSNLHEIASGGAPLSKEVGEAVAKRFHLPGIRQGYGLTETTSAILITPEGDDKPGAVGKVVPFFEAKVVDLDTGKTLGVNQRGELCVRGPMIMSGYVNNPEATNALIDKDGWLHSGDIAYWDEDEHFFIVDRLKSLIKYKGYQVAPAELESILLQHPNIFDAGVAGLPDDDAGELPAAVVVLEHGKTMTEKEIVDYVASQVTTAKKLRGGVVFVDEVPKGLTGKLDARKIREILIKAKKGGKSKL
smiles,measurement,setting,value
CCn1c(=O)c2[nH]c(-c3ccccc3)nc2n(CC)c1=O,AC50,[1],35.5 µM (inconclusive)
same,AC50,[2],3.98 µM (inconclusive)
O=C1c2ccccc2C(=O)N1CC#CCN1CCN(C(c2ccccc2)c2ccccc2)CC1,AC50,[3],25.2 µM (active)
same,AC50,[4],2.06 µM (active)
COc1ccc(C(=O)c2sc(Nc3ccccc3F)nc2N)cc1,AC50,[5],1.63 µM (active)
same,AC50,[6],3.41 µM (active)
COc1ccc(N2CCN(CCCN)CC2)cc1,EC50,[7],> 112 µM (not active)
same,IC50,[8],39.8 µM (active)
same,IC50,[9],23 µM (active)
same,CC50,[10],> 40 µM (active)
same,EC50,[11],> 112 µM (not active)
Cc1ccc(Nc2c(-c3ccccn3)nc3cc(C)ccn23)cc1,AC50,[12],1.36 µM (active)
same,AC50,[13],5.48 µM (active)
same,IC50,[14],1.7 µM (active)
same,EC50,[15],7.37 µM (active)
same,AC50,[16],15.5 µM (active)
same,EC50,[17],13.2 µM (active)
same,AC50,[18],61.3 µM (active)
same,EC50,[19],49.3 µM (active)
same,EC50,[20],0.951 µM (active)
same,AC50,[21],4.06 µM (active)
same,EC50,[22],7.83 µM (inconclusive)
same,EC50,[23],4.69 µM (active)
same,IC50,[24],0.61 µM (active)
same,EC50,[25],12.2 µM (active)
same,EC50,[26],4.56 µM (active)
same,AC50,[27],4.81 µM (active)
